One series can be described thus: in vitro. The class given is cell-based. The settings on record: African green monkey; VERO cells, 72 h exposure, CCK-8; read-out: Cytotoxicity (CC50). How it is done: A CCK-8 assay (ab228554; Abcam, Cambridge, UK) was performed to evaluate the cytotoxicity of pure compounds. WST-8/CCK8 tetrazolium salt is reduced by cellular dehydrogenases to form an orange formazan product that is soluble in a tissue culture medium. The formazan produced is directly proportional to the number of living and metabolically active cells and is measured via absorbance at 460 nm. Therefore, VERO cells (2 × 10^4 cells/mL) were grown in 96-well microtiter plates at 37 °C in a 5% CO2 incubator for 24 h. Then, they were exposed to serial dilutions of L7OG CY, FA, and RA for 72 h and incubated with CCK8 tetrazolium salt for 4 h at 37 °C in a CO2 incubator. The absorbance was measured at 460 nm using a GloMax® Discover Microplate Reader (Promega, Madison, WI, USA), and the percentage of cellular viability was calculated and compared to untreated cells.
Commercially available cynarin (CY), rosmarinic acid (RA), folic acid (FA), and luteolin-7-O-glucuronide (L7OG) were used to prepare the respective stock solutions.
Specifically, L7OG was dissolved in DMSO to obtain a 5.5 mM solution, RA was dissolved in water to obtain an 8.0 mM solution, CY was dissolved in methanol to obtain a 4.7 mM solution, and FA was dissolved in ethanol to obtain an 8.7 mM solution.
Viability assay of natural compounds
VERO cells were exposed to different concentrations of L7OG, CY, FA, and RA for 72 h and incubated with CCK8 tetrazolium salt for 4 h before measuring the absorbance values in a microplate reader. The percentage of cellular viability was calculated and compared to untreated cells.
Figure S1. Cellular viability assay following treatment with different L7OG, CY, FA, and RA concentrations. VERO cells were incubated for […] with various concentrations of natural compounds, as reported in the material and methods section. Results represent the mean of three biologically independent experiments ± SD.
Table S1. Cytotoxicity (CC50) values (μM) of natural compounds on VERO cells.
(1 picture or pasted object on this page, not shown here)

Series [1] addresses recombinant SARS-CoV-2 3CL^pro (Severe acute respiratory syndrome coronavirus 2, UniProt P0DTD1). The series can be described thus: biochemical. The class given is biochemical. The settings on record: for inhibition of the enzymatic activity of 3CL^pro (in words): judged from IC50 values; for pIC50: luminogenic substrate, 60 min, read-out: IC50 for inhibiting SARS-CoV-2 3CL^pro.

Series [2] addresses recombinant SARS-CoV-2 PL^pro (GST-PL^pro) (Severe acute respiratory syndrome coronavirus 2, UniProt P0DTD1). The series can be described thus: SARS-CoV-2 PLpro luminescent assay. It is filed as biochemical. The settings on record: for inhibition of PL^pro (in words): judged from IC50 values; for pIC50: luminogenic substrate, 60 min, read-out: IC50 for inhibiting SARS-CoV-2 PL^pro.

The subject of another series is SARS-CoV-2 M^pro. The settings on record: cited from earlier work.

pIC50: −log10 of the molar value.

What is called CC50 is the concentration giving 50% cytotoxicity. What is called pIC50 is the negative decadic logarithm of the IC50, by convention in mol/L. In the case of `O=C(/C=C/c1ccc(O)c(O)c1)O[C@@H]1C[C@@](OC(=O)/C=C/c2ccc(O)c(O)c2)(C(=O)O)C[C@@H](O)[C@@H]1O` [CY, 1,3-dicaffeoylquinic acid], in the series “in vitro”, the CC50 at 72 h was determined as 91.5 µM. In addition, in series [1], the “inhibition of the enzymatic activity of 3CL^pro (in words)” value (shortened to “inhibition … of 3CL^pro (in words)”) was “no enzymatic inhibition” and the pIC50 was less than 3.52.
As to `O=C(O)[C@H]1O[C@@H](Oc2cc(O)c3c(=O)cc(-c4ccc(O)c(O)c4)oc3c2)[C@H](O)[C@@H](O)[C@@H]1O` [Compound L7OG, luteolin-7-O-glucuronide], the CC50 at 72 h in the series “in vitro” was 55.7 µM. In series [2], the “inhibition of PL^pro (in words)” value is reported as “moderately inhibit” and the negative-log IC50 (pIC50) is 3.82. Also, in series [1], the “inhibition … of 3CL^pro (in words)” value is “moderate inhibition” and the negative logarithm of the IC50 (pIC50) was 3.77.
On to `Nc1nc(=O)c2nc(CNc3ccc(C(=O)N[C@@H](CCC(=O)O)C(=O)O)cc3)cnc2[nH]1` [FA, folic acid, reference compound], for which, in “in vitro”, the CC50 at 72 h worked out at 107 µM. For the same compound, in series [2], the “inhibition of PL^pro (in words)” value was “moderately inhibit” and the pIC50 is 3.74. Besides, in series [1], the “inhibition … of 3CL^pro (in words)” value is reported as “moderate inhibition” and the pIC50 was 3.63.
Turning to `O=C(/C=C/c1ccc(O)c(O)c1)O[C@H](Cc1ccc(O)c(O)c1)C(=O)O` [RA, rosmarinic acid], the pIC50 in the series on SARS-CoV-2 M^pro was 5.16; in series [2] it was less than 3.52; in series [1], less than 3.52. Moreover, in the series “in vitro”, the CC50 at 72 h was 78.3 µM. Besides, in series [1], the “inhibition … of 3CL^pro (in words)” value is listed as “no enzymatic inhibition”.
